Legend:
[1] = target: Lysine-specific histone demethylase 1A (Homo sapiens, UniProt O60341); experiment: Inhibition of recombinant human His-tagged LSD1 expressed in Escherichia coli BL21 (DE3) using H3K4me2 peptide as substrate preincubated for 10 mins followed by substrate addition measured after 20 mins by Amplex red dye based fluorescence assay
MV4-11 = experiment: Antiproliferative activity against human MV411 cells after 72 hrs by CellTitre-Glo assay; conditions: MV4-11, 72 h
THP-1 = experiment: Antiproliferative activity against human THP1 cells after 72 hrs by CellTitre-Glo assay; conditions: THP-1, 72 h

| SMILES | IC50 [1] | IC50 (MV4-11) | IC50 (THP-1) |
| --- | --- | --- | --- |
| N[C@H]1C[C@@]1(F)c1ccc(F)cc1 | > 25 µM |  |  |
| Cc1ccc([C@]2(F)C[C@@H]2N)cc1 | > 25 µM |  |  |
| COc1ccc([C@]2(F)C[C@@H]2N)cc1 | > 25 µM |  |  |
| N[C@H]1C[C@]1(F)c1ccc(F)cc1 | > 25 µM |  |  |
| N[C@H]1C[C@]1(F)c1ccccc1 | > 25 µM |  |  |
| COc1ccc([C@@]2(F)C[C@@H]2N)cc1 | > 25 µM |  |  |
| Cc1ccc([C@@]2(F)C[C@@H]2N)cc1 | > 25 µM |  |  |
| N[C@H]1C[C@@]1(F)c1ccccc1 | > 25 µM |  |  |
| N[C@@H]1C[C@H]1c1ccccc1.N[C@H]1C[C@@H]1c1ccccc1 (racemic) [TRANYLCYPROMINE] |  | 630 µM | 810 µM |
| N[C@H]1C[C@@]1(F)c1ccc([N+](=O)[O-])cc1 (relative stereo) | > 50 µM |  |  |
| CCOc1ccc([C@@]2(F)C[C@@H]2N)cc1 (relative stereo) | > 50 µM |  |  |
| N[C@H]1C[C@]1(F)c1cccc(F)c1 (relative stereo) |  | 4.9 µM | 1.6 µM |
| N[C@H]1C[C@]1(F)c1ccc([N+](=O)[O-])cc1 (relative stereo) | > 50 µM |  |  |
| N[C@H]1C[C@@]1(F)c1cccc(F)c1 (relative stereo) |  | 8.2 µM | 7 µM |
| COc1cccc([C@@]2(F)C[C@@H]2N)c1 (relative stereo) |  | 1.9 µM | 8.5 µM |
| CCOc1ccc([C@]2(F)C[C@@H]2N)cc1 (relative stereo) | > 50 µM |  |  |
| N[C@H]1C[C@]1(F)c1cccc([N+](=O)[O-])c1 (relative stereo) |  | > 30 µM | > 30 µM |

From ChEMBL document CHEMBL4038297, “Fluorinated tranylcypromine analogues as inhibitors of lysine-specific demethylase 1 (LSD1, KDM1A)” (Bioorg Med Chem Lett, 2017)
